In ChEMBL document CHEMBL5728389, “Nicotinyl alcohol ether derivative, preparation method therefor, and pharmaceutical composition and uses thereof” (2021):

These molecules were tested against Programmed cell death protein 1/Programmed cell death 1 ligand 1 (Homo sapiens, UniProt Q15116+Q9NZQ7) (assay: In Vitro Activity Assay: In vitro activity evaluation: Cisbio PD-1/PD-L1 binding assay kit was applied for the detection method of in vitro enzymology level.Screening Principles and Methods of PD-1/PD-L1 Small Molecule Inhibitors1) Principle: PD-1 protein is with HIS tag, and PD-1 ligand PD-L1 is with hFc tag. Eu labeled anti-hFc antibody and XL665 labeled anti-HIS antibody are combined with the above two label proteins respectively. After laser excitation, energy can be transferred from donor Eu to receptor XL665, allowing XL665 to glow. […] Reagents should be dispensed in the following order. For 384-well white ELISA plate, 2 μl of diluent or target compound diluted with diluent was added to each well, and then 4 μl of PD-1 protein and 4 μl of PD-L1 protein were added per well, incubated for 15 min at room temperature; and 10 μl of a mixture of anti-Tag1-Eu3+ and anti-Tag2-XL665 was added per well and incubated for 1 h to 4 h at room temperature and the fluorescence signals at 665 nm and 620 nm were measured with an Envison instrument. HTRF rate=(665 nm/620 nm)*104. 8-10 concentrations were detected for each compound and IC50 was calculated by Graphpad software.).
Programmed cell death protein 1/Programmed cell death 1 ligand 1, sequence (Q15116 whole entry): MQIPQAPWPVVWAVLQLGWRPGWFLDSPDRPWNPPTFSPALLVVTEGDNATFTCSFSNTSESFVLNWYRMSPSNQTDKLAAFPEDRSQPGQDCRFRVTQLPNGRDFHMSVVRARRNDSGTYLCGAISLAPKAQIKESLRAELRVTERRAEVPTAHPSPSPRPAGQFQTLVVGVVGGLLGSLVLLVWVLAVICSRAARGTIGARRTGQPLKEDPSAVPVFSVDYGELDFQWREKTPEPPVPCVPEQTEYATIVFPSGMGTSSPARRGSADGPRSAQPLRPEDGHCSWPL
Programmed cell death protein 1/Programmed cell death 1 ligand 1, sequence (Q9NZQ7 whole entry): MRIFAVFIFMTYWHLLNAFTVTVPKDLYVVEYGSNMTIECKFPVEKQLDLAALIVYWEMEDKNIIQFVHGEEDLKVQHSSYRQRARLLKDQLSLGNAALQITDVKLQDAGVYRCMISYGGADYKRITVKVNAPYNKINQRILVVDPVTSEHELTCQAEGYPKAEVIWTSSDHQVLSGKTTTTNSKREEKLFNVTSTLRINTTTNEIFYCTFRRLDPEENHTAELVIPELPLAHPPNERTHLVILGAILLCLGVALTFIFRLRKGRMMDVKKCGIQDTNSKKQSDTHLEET
Assay type: protein-complex assay

| Structure (SMILES) | IC50 |
| --- | --- |
| O=C(O)[C@H](CO)NCc1cc(Cl)c(OCc2cccc(-c3ccccc3)c2Cl)cc1OCc1cccnc1 | 0.0401 µM |
| O=C(O)[C@H](CO)NCc1cc(Cl)c(OCc2cccc(-c3ccccc3)c2F)cc1OCc1cccnc1 | 0.134 µM |
| O=C(O)[C@H](CO)NCc1cc(Cl)c(OCc2cccc(-c3ccccc3)c2)cc1OCc1cccnc1 | 0.318 µM |
| NC(=O)C[C@H](NCc1cc(Cl)c(OCc2cccc(-c3ccccc3)c2Br)cc1OCc1cccnc1)C(=O)O | 0.835 µM |
| C/C(=C\C(=O)O)NCc1cc(Cl)c(OCc2cccc(-c3ccccc3)c2Br)cc1OCc1cccnc1 | 0.00233 µM |
| O=S(=O)(O)CCNCc1cc(Cl)c(OCc2cccc(-c3ccccc3)c2Br)cc1OCc1cccnc1 | 16.2 µM |
| OCCN(CCO)Cc1cc(Cl)c(OCc2cccc(-c3ccccc3)c2Br)cc1OCc1cccnc1 | 0.051 µM |
| OCCNCc1cc(Cl)c(OCc2cccc(-c3ccccc3)c2Br)cc1OCc1cccnc1 | 0.0538 µM |
| C[C@H](NCc1cc(Cl)c(OCc2cccc(-c3ccccc3)c2Br)cc1OCc1cccnc1)C(=O)O | 0.00529 µM |
